In patent US20090076136A1, “THERAPEUTIC AGENT” (priority 2003, published 2009):
Like-named read-outs stand apart in the source and are kept apart here.

Experiments:
mouse = experiment: Single-dose oral toxicity in mouse; assay type: in vivo; conditions: 1 g/kg weight
Experimental: No toxicity is found even when the above-mentioned effective ingredient used in the present invention is administered in an effective dose for the exhibition of its action.

ICR mice = conditions: for Blood Glucose Level, Before Administration of Sample: ICR mice fasted 18 hours, Mean ± Standard Error; for Blood Glucose Level, Before Glucose Tolerance Test: 1 hour after
Experimental: After fasting the mice for 18 hours, polygodial was dissolved in an olive oil so as to have a concentration of 0.3%, and the solution was forcibly orally administered to the mice at 10 mg/kg weight. An olive oil was administered to each of mice in the control group at 3.3 mL/kg weight in the same manner. After 1 hour from the administration, a 20% glucose solution was administered at 2 g/kg weight. Here, the glucose was administered in two ways, forcible oral administration and intraperitoneal administration. Before administration of the sample, before the glucose tolerance test, and after given periods of time after the glucose tolerance test, blood was collected from the vein of mouse tails, and a blood glucose level was determined.

[1] = tested on: mature adipocytes (3T3-L1 cells); experiment: Synergistic enhancing action by polygodial and insulin on glucose uptake; assay type: cell-based; conditions: FIG. 21
Experimental: The amount of 2-deoxyglucose uptake into mature adipocytes stimulated with the sample in the adipocytes was determined partly in accordance with the method described in Example 1 as the evaluation of synergistic enhancing action by a low-concentration polygodial and a low-concentration insulin on glucose uptake.
The mature adipocytes were prepared according to the method described in Example 1.
After the termination of the culture, the medium was removed, and the cells were washed twice with a Dulbecco's modified Eagle's medium containing 0.1% (w/v) bovine serum albumin. Thereafter, the cells were cultured at 37° C. overnight in the presence of 5% carbonic dioxide gas. After the overnight culture, the cells were washed twice with a HEPES buffered saline (140 mM NaCl, 5 mM KCl, 2.5 mM MgSO4, 1 mM CaCl2, 20 mM HEPES-Na (pH 7.4)). The amount 0.9 mL of the same buffer was added thereto. The cells were cultured at 37° C. for 45 minutes. Subsequently, polygodial was added thereto so as to have a final concentration of 300 nM, and insulin was added thereto so as to have a final concentration of 0.05 μg/mL. The cells were further cultured for 30 minutes. […] In addition, a group without addition of the sample was used as a negative control. Thereafter, the amount of 2-deoxy-[1,2-^3H(N)]-glucose taken into the adipocytes was determined in the same manner as in the method described in Example 1.

[2] = tested on: mature adipocytes (3T3-L1 cells); experiment: Enhancing action on glucose uptake: 2-deoxyglucose uptake into mature adipocytes; assay type: cell-based
Experimental: The induction of differentiation into mature adipocytes was carried out by partially modifying the method of Rubin C. S. et al. (JBC. 253 7570-7578, 1978). 3T3-L1 cells (ATCC CCL-92.1) were suspended in a 10% calf serum (manufactured by ICN)-containing Dulbecco's modified Eagle's medium (manufactured by Sigma, D6046) containing 200 μM ascorbic acid so as to have a density of 4×10^3 cells/mL, and the suspension was put in each well of a 12-well microtiter plate in an amount of 2 mL per well. The cells were cultured at 37° C. for 7 days in the presence of 5% carbon dioxide gas. On the seventh day, the medium was exchanged with […] of a 10% fetal bovine serum (manufactured by GIBCO)-containing Dulbecco's modified Eagle's medium containing 200 μM ascorbic acid, 0.25 μM dexamethasone, 10 μg/mL insulin (manufactured by TAKARA BIO INC.) and 0.5 mM 3-isobutyl-1-methylxanthine (manufactured by Nacalai Tesque, Inc., 19624-86). After 45 hours, the medium was exchanged with 2 mL of a 10% fetal bovine serum-containing Dulbecco's modified Eagle's medium containing 200 μM ascorbic acid and 5 μg/mL insulin. The medium was exchanged on after 2 days and 5 days, and the cells were cultured for 7 days, to give mature adipocytes.
As the evaluation of enhancing action on glucose uptake, and also as the evaluation of insulin-mimetic action, the amount of 2-deoxyglucose uptake into mature adipocytes stimulated with the sample in the adipocytes was determined.
After the termination of the culture, the medium was removed, and the cells were washed twice with a 0.1% (w/v) bovine serum albumin (manufactured by Sigma, A8022)-containing Dulbecco's modified Eagle's medium. Thereafter, 1 mL of the same medium was put to each well. The cells were cultured overnight at 37° C. in the presence of 5% carbon dioxide gas. After the overnight culture, the cells were washed twice with a HEPES buffered saline (140 mM NaCl, 5 mM KCl, 2.5 mM MgSO4, 1 mM CaCl2, 20 mM HEPES-Na (pH 7.4)), and 0.9 mL of the same buffer was added thereto. The cells were cultured at 37° C. for 75 minutes. […] […] Thereafter, 100 μL of a HEPES buffered saline containing 2-deoxy-[1,2-^3H(N)]-glucose (manufactured by PerkinElmer Life Sciences Inc., NET549A) and 1 mM 2-deoxyglucose (manufactured by Nacalai Tesque, Inc., 10722-11) was added thereto at a final concentration of 0.5 μCi/mL, and the cells were further cultured at 37° C. for 10 minutes. After the termination of the culture, the supernatant was removed, the cells were washed three times with a phosphate buffer cooled to 4° C., and 0.5 mL of a 1% Nonidet P-40-containing phosphate buffer was added to lyse the cells, whereby 2-deoxy-[1,2-^3H(N)]-glucose taken into the cells was eluted. The radioactivity was determined with a liquid scintillation counter LS6500 (manufactured by Beckmann) using 25 μL of the supernatant with Ultima Gold (manufactured by PerkinElmer Life Sciences Inc., 6013329) as a scintillation cocktail.

KK-Ay mice = tested on: KK-Ay mice
Experimental: Pathological amelioration of polygodial was examined using a type II diabetes model mice. Experiments were carried out with ten male 5-week old KK-Ay mice (CLEA Japan, Inc.) per group. Polygodial was dissolved in an olive oil so as to have a concentration of 0.03%, and the solution was forcibly orally administered to the mice once a day at 1 mg/kg weight for consecutive days. An olive oil was administered to each of mice in the control group at 3.3 mL/kg weight in the same manner. On the day before the beginning of administration and on the twenty-first day, blood was collected from the vein of mouse tails, and a blood glucose level was determined with a simple blood glucose meter, ACCU-CHEK Compact (manufactured by Roche Diagnostics K.K.). In addition, on the twenty-second day, blood was collected from the abdominal aorta, and the insulin concentration in serum was determined with Lebis Insulin Kit (manufactured by Shibayagi Co., Ltd.).

[3] = tested on: glucose transporter (mature adipocytes); experiment: Influence of cytochalasin B on 2-deoxyglucose uptake in mature adipocytes; assay type: cell-based
Experimental: Specifically, as a sample, there was set a group with addition of a dimethyl sulfoxide solution of polygodial so as to have a final concentration of 3 μM. […] Furthermore, in each group, there was set a group with addition of cytochalasin B (manufactured by Nacalai Tesque, Inc., 10435-81) so as to have a final concentration 40 μM at the same time as the time of addition of the sample and insulin. Thereafter, the amount of 2-deoxy-[1,2-^3H(N)]-glucose taken into the adipocytes was determined in the same manner.

[4] = polygodial 10 mg/kg orally, glucose 2 g/kg by forcible oral administration
[5] = polygodial 10 mg/kg orally, glucose 2 g/kg by intraperitoneal administration
[6] = 1 mg/kg weight orally once a day, KK-Ay mice

CC1(C)CCC[C@]2(C)[C@@H](C=O)C(C=O)=CC[C@@H]12 [polygodial]
deaths after oral administration (mouse): no cases of deaths are found | Blood Glucose Level, Before Administration of Sample (ICR mice; glucose by forcible oral administration): 94 ± 7 mg/dL | Blood Glucose Level, Before Administration of Sample (ICR mice; glucose by intraperitoneal administration): 77 ± 4 mg/dL | Blood Glucose Level, Before Glucose Tolerance Test (ICR mice; polygodial 10 mg/kg orally, glucose by forcible oral administration): 126 ± 7 mg/dL | Blood Glucose Level, Before Glucose Tolerance Test (ICR mice; polygodial 10 mg/kg orally, glucose by intraperitoneal administration): 90 ± 7 mg/dL | Blood Glucose Level, 30 min. After Glucose Tolerance Test (ICR mice; [4]): 260 ± 15 mg/dL | Blood Glucose Level, 60 min. After Glucose Tolerance Test (ICR mice; [4]): 224 ± 18 mg/dL | Blood Glucose Level, 120 min. After Glucose Tolerance Test (ICR mice; [4]): 138 ± 9 mg/dL | Blood Glucose Level, 30 min. After Glucose Tolerance Test (ICR mice; [5]): 300 ± 56 mg/dL | Blood Glucose Level, 60 min. After Glucose Tolerance Test (ICR mice; [5]): 263 ± 34 mg/dL | Blood Glucose Level, 120 min. After Glucose Tolerance Test (ICR mice; [5]): 126 ± 10 mg/dL | Blood Glucose Level, 180 min. After Glucose Tolerance Test (ICR mice; [5]): 84 ± 5 mg/dL | action on the elevation in the blood glucose level (in words) (ICR mice; polygodial 10 mg/kg weight, both oral and intraperitoneal administrations of glucose): suppressive action | enhancing action on glucose uptake by simultaneous addition with insulin ([1]; polygodial 300 nM added simultaneously with insulin 0.05 μg/mL, versus either alone): synergistically increase | 2-deoxy-[1,2-3H(N)]-glucose uptake compared to the negative control ([1]; polygodial 300 nM alone): enhancement of 2-deoxy-[1,2-^3H(N)]-glucose uptake was found | 2-deoxy-[1,2-3H(N)]-glucose uptake compared to the negative control ([2]; final concentration 3 μM, 1 μM, 0.3 μM or 0.1 μM, FIG. 1): enhancement of 2-deoxy-[1,2-^3H(N)]-glucose uptake was found | action of ameliorating insulin resistance (KK-Ay mice; [6]): action of ameliorating insulin resistance was found | blood glucose level (in words) (KK-Ay mice; [6]): lowered | insulin concentration (in words) (KK-Ay mice; [6]): lowered | Blood Glucose Level, Twenty-First Day (KK-Ay mice; 1 mg/kg weight orally once a day, twenty-first day, KK-Ay mice, Mean ± Standard Error): 231 ± 36 mg/dL | Insulin (concentration in serum) (KK-Ay mice; 1 mg/kg weight orally once a day, twenty-second day, KK-Ay mice, Mean ± Standard Error): 8.4 ± 4 ng/mL | Blood Glucose Level, Previous Day (KK-Ay mice; day before the beginning of administration, KK-Ay mice, Mean ± Standard Error): 328 ± 25 mg/dL | changes in weight and general symptoms (KK-Ay mice; during the experimental period, 1 mg/kg weight orally once a day): no changes were found | 2-deoxy-[1,2-3H(N)]-glucose uptake compared to the negative control [3]: enhancement of 2-deoxy-[1,2-^3H(N)]-glucose uptake was found | mediation of the enhancing action on glucose uptake [3]: mediated by a glucose transporter

insulin
2-deoxy-[1,2-3H(N)]-glucose uptake compared to the negative control ([1]; insulin 0.05 μg/mL alone): enhancement of 2-deoxy-[1,2-^3H(N)]-glucose uptake was found | 2-deoxy-[1,2-3H(N)]-glucose uptake compared to the negative control ([2]; positive control, final concentration 1 μg/mL): enhancement of 2-deoxy-[1,2-^3H(N)]-glucose uptake was found | 2-deoxy-[1,2-3H(N)]-glucose uptake compared to the negative control ([3]; insulin 1 μg/mL, without cytochalasin B, FIG. 22): enhancement of 2-deoxy-[1,2-^3H(N)]-glucose uptake was found
